Results on three molecules are retold here after patent US20220009920A1 (GB005, Inc., priority 2020, published 2022).

Common to all, as to experiment: Large panel kinase profiling
Common to all, as to assay type: biochemical
Holding throughout (conditions): 1 μM test article, 1 mM ATP

One experiment addresses T1, FYNB (Homo sapiens, UniProt P06241).
T1 construct: AssayQuant Technologies, Inc. (service provider)
In short, it runs like this:
(§1)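 Activity is measured in real time from the CSox sensor's fluorescence at 485 nm after 360 nm excitation, sampled every minute. Assays run at 30° C. with 1 mM ATP and a single 1 μM compound dose.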

Another experiment has as its target T2, GAK (Homo sapiens, UniProt O14976).
T2 construct: AssayQuant Technologies, Inc. (service provider)
T2 sequence (O14976 1-1311): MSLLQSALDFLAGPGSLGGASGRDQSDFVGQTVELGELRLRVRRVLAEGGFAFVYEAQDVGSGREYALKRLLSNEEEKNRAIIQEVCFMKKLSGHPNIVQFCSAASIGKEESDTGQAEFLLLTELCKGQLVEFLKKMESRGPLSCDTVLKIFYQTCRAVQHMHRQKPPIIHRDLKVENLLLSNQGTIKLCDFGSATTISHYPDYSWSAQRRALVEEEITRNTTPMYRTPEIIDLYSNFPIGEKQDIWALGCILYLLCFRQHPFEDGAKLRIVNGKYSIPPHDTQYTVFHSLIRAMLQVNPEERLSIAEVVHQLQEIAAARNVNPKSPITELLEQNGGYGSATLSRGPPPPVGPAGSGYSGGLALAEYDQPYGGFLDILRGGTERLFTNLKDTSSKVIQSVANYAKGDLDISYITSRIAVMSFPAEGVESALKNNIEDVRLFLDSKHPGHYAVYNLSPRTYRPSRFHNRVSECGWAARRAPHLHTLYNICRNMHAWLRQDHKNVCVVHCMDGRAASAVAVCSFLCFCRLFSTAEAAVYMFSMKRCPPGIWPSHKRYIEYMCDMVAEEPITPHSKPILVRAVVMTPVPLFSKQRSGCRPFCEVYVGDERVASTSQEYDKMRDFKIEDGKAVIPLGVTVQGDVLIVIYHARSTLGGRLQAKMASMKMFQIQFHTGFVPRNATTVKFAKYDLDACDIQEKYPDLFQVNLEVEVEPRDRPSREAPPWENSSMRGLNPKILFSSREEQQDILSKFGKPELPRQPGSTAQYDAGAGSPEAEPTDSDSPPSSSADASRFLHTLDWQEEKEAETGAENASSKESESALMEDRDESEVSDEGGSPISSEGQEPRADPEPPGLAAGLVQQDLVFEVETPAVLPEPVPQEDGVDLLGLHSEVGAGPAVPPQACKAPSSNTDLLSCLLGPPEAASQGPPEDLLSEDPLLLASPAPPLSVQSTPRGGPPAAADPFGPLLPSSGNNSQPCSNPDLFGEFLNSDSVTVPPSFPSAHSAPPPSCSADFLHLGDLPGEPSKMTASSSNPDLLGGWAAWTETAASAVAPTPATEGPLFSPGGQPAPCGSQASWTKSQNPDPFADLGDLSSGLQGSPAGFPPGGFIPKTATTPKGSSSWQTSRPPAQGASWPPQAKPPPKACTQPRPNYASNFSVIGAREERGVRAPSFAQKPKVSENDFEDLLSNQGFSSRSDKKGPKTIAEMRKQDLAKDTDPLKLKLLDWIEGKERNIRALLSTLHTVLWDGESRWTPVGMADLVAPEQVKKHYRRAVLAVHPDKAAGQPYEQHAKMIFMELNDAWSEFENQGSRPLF
In short, it runs like this:
as §1

The target of the next experiment is T3, MARK3 (Homo sapiens, UniProt P27448).
T3 construct: AssayQuant Technologies, Inc. (assay service)
In short, it runs like this: as §1

A further experiment concerns the target T4, MASTL (Homo sapiens, UniProt Q96GX5).
T4 construct: AssayQuant Technologies, Inc. (assay service)
T4 sequence (Q96GX5 1-879): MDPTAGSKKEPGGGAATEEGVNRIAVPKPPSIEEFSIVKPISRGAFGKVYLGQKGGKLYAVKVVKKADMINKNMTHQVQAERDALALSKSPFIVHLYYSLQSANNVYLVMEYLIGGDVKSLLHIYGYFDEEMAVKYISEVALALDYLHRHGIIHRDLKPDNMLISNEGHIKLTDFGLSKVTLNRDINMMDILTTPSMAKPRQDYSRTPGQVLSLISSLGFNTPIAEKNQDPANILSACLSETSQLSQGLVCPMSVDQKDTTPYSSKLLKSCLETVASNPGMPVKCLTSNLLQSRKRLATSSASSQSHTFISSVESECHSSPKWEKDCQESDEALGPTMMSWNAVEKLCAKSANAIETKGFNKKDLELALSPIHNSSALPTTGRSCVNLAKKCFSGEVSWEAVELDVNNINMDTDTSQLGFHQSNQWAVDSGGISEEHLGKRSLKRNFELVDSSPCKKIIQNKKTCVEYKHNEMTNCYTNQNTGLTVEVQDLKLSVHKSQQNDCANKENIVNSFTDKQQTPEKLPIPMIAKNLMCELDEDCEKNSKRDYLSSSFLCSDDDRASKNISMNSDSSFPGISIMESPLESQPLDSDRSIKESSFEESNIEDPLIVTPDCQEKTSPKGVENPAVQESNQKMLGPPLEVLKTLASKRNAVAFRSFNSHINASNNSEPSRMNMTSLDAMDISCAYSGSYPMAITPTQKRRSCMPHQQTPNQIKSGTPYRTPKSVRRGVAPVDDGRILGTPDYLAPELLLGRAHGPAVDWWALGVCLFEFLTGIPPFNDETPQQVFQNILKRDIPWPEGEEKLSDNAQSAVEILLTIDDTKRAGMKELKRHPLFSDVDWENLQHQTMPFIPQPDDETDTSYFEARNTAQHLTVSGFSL
In short, it runs like this: as §1

The target in the next experiment is PDGFRA (Homo sapiens, UniProt P16234). Put shortly:
as §1

The target in another experiment is PTK2 (Homo sapiens, UniProt Q05397). Put shortly:
as §1

The next experiment deals with ROS (Homo sapiens, UniProt P08922). Put shortly:
as §1

Chain of ROS (P08922 28-2347, species assumed): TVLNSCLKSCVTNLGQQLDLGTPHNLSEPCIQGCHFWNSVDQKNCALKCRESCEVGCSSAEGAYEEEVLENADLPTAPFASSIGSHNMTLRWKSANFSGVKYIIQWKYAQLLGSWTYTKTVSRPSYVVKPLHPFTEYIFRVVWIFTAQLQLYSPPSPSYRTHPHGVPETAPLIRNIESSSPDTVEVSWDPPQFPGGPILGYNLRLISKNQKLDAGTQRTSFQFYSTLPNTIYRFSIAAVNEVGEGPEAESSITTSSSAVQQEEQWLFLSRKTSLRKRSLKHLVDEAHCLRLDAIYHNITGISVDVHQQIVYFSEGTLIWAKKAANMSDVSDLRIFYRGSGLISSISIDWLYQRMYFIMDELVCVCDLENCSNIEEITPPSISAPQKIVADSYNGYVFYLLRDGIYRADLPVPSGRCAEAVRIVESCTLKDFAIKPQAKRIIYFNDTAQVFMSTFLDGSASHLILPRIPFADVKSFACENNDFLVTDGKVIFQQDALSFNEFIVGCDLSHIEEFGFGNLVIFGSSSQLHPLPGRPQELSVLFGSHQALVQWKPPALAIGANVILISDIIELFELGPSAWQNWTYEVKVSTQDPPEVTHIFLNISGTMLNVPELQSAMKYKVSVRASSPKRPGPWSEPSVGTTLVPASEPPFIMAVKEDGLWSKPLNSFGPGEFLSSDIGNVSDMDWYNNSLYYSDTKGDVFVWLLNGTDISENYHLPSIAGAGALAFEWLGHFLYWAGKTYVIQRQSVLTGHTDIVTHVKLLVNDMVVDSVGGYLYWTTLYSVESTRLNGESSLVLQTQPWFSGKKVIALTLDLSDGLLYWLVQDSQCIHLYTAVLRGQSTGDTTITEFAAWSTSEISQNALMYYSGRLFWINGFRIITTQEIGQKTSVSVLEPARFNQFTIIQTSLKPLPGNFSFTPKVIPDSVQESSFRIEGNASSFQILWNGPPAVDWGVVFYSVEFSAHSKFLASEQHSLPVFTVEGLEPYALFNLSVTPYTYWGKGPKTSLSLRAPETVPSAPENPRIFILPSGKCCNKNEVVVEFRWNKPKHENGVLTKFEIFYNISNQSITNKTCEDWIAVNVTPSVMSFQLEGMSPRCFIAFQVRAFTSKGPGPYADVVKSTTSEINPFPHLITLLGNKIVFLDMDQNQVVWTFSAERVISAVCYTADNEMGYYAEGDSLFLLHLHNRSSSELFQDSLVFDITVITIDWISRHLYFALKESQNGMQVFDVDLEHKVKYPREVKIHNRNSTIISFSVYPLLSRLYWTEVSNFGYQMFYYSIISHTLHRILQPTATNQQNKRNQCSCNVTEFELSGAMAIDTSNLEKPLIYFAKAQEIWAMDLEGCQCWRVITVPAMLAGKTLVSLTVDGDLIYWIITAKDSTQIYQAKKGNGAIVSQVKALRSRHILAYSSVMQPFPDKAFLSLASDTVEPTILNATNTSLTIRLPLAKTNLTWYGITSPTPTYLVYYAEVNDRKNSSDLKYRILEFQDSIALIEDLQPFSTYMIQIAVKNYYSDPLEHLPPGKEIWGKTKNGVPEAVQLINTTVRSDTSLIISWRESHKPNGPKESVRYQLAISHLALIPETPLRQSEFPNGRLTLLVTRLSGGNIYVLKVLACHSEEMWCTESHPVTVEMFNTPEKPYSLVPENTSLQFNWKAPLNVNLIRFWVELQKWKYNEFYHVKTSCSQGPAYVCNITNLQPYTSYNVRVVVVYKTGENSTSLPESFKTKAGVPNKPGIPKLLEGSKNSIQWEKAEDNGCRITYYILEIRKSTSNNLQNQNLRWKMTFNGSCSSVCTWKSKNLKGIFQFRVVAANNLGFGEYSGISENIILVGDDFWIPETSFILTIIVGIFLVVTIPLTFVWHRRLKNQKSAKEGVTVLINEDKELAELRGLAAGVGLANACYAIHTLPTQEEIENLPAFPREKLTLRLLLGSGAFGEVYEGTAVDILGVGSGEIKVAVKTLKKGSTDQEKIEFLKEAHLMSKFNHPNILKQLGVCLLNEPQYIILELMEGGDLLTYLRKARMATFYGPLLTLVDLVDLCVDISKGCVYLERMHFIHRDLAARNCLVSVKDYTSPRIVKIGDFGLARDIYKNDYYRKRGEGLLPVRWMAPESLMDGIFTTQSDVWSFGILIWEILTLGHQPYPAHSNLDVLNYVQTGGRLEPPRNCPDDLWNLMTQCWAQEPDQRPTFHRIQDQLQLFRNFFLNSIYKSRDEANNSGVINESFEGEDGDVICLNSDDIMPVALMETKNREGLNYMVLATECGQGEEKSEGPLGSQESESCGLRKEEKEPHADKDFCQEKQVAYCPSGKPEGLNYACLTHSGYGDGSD
Chain of PTK2 (Q05397 whole entry, species assumed): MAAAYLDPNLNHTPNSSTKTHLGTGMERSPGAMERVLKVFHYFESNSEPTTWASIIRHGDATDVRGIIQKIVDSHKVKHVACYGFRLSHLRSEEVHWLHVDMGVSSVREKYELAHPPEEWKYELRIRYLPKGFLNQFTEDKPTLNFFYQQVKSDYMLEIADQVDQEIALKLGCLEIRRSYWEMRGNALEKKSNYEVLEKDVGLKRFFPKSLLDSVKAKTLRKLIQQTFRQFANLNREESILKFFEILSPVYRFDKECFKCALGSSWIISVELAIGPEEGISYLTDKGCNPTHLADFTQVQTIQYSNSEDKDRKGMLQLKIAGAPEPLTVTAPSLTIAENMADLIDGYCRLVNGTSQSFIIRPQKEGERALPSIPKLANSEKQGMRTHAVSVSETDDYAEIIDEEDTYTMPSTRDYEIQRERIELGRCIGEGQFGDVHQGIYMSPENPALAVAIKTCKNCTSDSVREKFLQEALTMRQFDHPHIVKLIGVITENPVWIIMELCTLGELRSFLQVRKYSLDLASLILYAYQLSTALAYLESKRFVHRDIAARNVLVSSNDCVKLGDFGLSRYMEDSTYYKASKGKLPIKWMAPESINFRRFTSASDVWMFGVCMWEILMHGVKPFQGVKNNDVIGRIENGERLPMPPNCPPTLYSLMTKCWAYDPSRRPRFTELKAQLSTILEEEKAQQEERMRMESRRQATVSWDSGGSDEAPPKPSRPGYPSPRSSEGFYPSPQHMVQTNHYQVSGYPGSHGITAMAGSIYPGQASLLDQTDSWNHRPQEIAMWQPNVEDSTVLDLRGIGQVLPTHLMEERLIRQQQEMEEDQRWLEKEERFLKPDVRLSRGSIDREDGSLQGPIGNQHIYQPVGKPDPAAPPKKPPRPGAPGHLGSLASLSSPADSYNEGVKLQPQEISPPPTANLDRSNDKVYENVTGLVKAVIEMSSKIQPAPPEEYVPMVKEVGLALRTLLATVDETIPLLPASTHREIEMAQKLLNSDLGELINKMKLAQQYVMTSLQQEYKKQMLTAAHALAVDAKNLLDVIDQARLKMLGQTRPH
Chain of PDGFRA (P16234 24-1089, species assumed): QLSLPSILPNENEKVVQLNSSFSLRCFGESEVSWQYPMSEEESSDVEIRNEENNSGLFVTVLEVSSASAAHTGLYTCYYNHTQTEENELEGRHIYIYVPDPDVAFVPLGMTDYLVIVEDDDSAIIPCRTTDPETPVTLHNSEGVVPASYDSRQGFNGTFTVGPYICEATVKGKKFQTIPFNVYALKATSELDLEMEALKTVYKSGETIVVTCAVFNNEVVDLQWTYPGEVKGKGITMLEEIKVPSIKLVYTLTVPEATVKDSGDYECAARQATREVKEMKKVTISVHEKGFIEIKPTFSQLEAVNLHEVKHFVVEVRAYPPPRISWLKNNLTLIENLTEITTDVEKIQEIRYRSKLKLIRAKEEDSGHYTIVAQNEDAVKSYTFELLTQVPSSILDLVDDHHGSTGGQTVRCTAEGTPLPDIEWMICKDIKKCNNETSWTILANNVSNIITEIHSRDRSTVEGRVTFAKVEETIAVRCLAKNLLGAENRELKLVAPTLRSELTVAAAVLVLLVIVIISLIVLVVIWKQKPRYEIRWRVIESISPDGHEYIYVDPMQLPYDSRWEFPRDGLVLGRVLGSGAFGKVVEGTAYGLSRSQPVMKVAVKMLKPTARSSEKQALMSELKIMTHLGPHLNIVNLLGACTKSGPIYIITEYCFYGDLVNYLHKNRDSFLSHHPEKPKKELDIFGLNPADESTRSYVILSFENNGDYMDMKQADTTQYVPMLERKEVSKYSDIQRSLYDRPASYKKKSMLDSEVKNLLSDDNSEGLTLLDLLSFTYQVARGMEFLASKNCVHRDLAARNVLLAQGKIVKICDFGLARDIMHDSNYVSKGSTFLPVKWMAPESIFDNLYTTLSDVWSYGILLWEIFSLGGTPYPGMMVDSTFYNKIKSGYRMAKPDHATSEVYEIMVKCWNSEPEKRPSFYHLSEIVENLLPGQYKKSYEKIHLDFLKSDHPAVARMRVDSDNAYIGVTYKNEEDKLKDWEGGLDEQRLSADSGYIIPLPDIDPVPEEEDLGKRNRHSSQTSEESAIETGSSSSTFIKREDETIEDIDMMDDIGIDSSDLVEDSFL
T1 sequence (P06241 1-534 isoform P06241-2): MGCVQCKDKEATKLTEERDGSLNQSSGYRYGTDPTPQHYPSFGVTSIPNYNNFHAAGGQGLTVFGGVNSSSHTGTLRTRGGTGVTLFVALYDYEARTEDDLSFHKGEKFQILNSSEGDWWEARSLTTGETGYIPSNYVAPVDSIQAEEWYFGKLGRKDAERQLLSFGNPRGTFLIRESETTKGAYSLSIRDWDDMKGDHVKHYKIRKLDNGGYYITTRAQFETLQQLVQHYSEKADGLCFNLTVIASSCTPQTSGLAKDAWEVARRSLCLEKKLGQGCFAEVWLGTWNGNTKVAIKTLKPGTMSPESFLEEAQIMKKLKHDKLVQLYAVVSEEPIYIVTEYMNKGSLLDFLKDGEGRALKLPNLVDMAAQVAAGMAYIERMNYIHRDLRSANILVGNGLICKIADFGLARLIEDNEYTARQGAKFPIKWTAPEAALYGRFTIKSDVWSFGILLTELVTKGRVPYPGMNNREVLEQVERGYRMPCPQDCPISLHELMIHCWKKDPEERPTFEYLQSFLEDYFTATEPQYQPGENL

As a reminder, the inhibition is the drop in the measured response relative to a control, in per cent. In the case of `C=CC(=O)N1CCCC(c2c(F)cc(C(N)=O)c3[nH]c4c(c23)CCCCC4)C1` (single isomer, unassigned) [Compound 5-6], the inhibition at 1 µM against FYNB was 21%; on GAK it was 17.9%; against MARK3, 1.6%; on MASTL, 2.2%; at PDGFRA it was -26.6%; on PTK2, -69.1%. Further, on ROS, the inhibition at 1 µM was -35.7%.

As for `C=CC(=O)N1CCC[C@@H](c2c(F)cc(C(N)=O)c3[nH]c4c(c23)CC2(CC4)CC2)C1` [Compound 6-2, (S)-5-(1-acryloylpiperidin-3-yl)-6-fluoro-1,2,4,9-tetrahydrospiro[carbazole-3,1′-cyclopropane]-8-carboxamide], the inhibition at 1 µM is -20% at FYNB; -3.7% against GAK; -10.6% at MARK3; -9% on MASTL; 23.9% at PDGFRA; 16.5% against PTK2. At ROS, the inhibition at 1 µM was -3.6%.

Turning to `C=CC(=O)N1CCC[C@@H](c2c(F)cc(C(N)=O)c3[nH]c4c(c23)CCC4)C1` [Compound 10-2, (S)-8-(1-acryloylpiperidin-3-yl)-7-fluoro-1,2,3,4-tetrahydrocyclo-penta[b]indole-5-carboxamide], the inhibition at 1 µM was -36.2% on FYNB; -28.4% against GAK; -90.5% against MARK3; -10.2% on MASTL; 2.1% on PDGFRA; -14.6% on PTK2. Further, the inhibition at 1 µM on ROS was -22%.
